Source: patent US20190343873A1, “SEQUENCE-SELECTIVE GENE EXPRESSION REGULATORS” (KYOTO UNIVERSITY, priority 2018, published 2019)

Key:
[1] = target: T1, Nuc1 (reconstituted nucleosome with five match sequences for Bi-PIP1) / recombinant human P300 (Homo sapiens, UniProt Q09472); experiment: HAT reaction-in vitro ChIP-qPCR with recombinant P300, acetylation of Nuc1; format: biochemical; details: mixture of Nuc1 and Nuc2
T1 construct: 10 nM recombinant human P300 (amino acids 965-1810); purchased BPS Bioscience 50071
T1 sequence (Q09472 965-1810): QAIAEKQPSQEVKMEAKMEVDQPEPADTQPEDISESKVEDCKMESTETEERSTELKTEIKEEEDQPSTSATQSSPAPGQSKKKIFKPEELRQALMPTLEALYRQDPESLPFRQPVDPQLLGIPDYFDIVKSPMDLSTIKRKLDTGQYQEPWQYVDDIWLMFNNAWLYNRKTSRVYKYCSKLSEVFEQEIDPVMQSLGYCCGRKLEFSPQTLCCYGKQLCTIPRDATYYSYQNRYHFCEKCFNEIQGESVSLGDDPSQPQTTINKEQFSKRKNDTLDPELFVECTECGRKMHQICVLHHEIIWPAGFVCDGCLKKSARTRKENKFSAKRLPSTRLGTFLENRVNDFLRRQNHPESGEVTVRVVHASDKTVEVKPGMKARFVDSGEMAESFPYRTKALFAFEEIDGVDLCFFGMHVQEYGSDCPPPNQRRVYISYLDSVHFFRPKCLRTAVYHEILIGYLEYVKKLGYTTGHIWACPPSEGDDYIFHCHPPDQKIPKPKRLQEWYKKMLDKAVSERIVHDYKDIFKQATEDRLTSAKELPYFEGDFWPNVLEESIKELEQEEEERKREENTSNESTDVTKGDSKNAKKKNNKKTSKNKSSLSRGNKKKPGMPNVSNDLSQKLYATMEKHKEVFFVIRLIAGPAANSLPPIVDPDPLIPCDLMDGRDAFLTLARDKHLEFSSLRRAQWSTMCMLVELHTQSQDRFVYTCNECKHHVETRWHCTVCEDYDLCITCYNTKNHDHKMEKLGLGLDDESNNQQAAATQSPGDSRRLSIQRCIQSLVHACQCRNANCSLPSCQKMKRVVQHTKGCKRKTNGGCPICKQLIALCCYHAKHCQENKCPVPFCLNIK
Text: (§1) To test sequence-selective histone acetylation by Bi-PIP, a biochemical assay (HAT reaction-in vitro ChIP-qPCR) was established by combining HAT reaction followed by immunoprecipitation utilizing reconstituted nucleosomes as reported previously (Nguyen et al., Nat. Methods 2014, 11, 834-40) and quantitative polymerase chain reaction (qPCR) (FIGS. 2A to 2C).
(§2) Mononucleosomes were reconstituted utilizing a salt-dialysis method from a histone octamer and DNA templates that each have a Widom 601 nucleosome positioning sequence and five PIP-binding sequences: 5′-AACAGTCA-3′ for Bi-PIP1 and 5′-AGCCGCCA-3′ for Bi-PIP2 (FIG. 2A). Gel electrophoresis confirmed that the majority of DNA templates were successfully formed on the nucleosome. […]
(§3) To a HAT reaction (15 μL), 85 μL of an AB buffer (20 mM Tris-HCl, pH 7.5, 50 mM NaCl, 5 mM EDTA) containing 1/500 volume of anti-acetylated H3 (Abcam, ab47915) was added and rotated for 1 hour at room temperature. […] The DNA solution was diluted, and amount of the precipitated each nucleosome was measured by qPCR utilizing SYBR FAST qPCR Kit (Kapa Bioscience) on LightCycler 480 (Roche Diagnostics GmbH) (FIG. 2B). Cp values were determined by the 2nd derivative maximum method and relative […] amount was calculated by the ΔΔCp method. […]

[2] = target: T2, Nuc2 (reconstituted nucleosome with five match sequences for Bi-PIP2) / recombinant human P300 (Homo sapiens, UniProt Q09472); experiment: HAT reaction-in vitro ChIP-qPCR with recombinant P300, acetylation of Nuc2; format: biochemical; details: 100 nM compound, mixture of Nuc1 and Nuc2
T2 construct: 10 nM recombinant human P300 (amino acids 965-1810); purchased BPS Bioscience 50071
T2 sequence (Q09472 965-1810): T1 sequence (Q09472 965-1810)
Text: as §1, §2, §3

[3] = target: T3, Nuc1 histones / recombinant human P300 (Homo sapiens, UniProt Q09472); experiment: HAT reaction followed by LC-MS/MS analysis of histone peptides; format: biochemical; details: 2.5 μM vs 0 compound, Nuc1 500 nM, P300 50 nM, Ac-CoA 10 μM
T3 construct: 10 nM recombinant human P300 (amino acids 965-1810); purchased BPS Bioscience 50071
T3 sequence (Q09472 965-1810): T1 sequence (Q09472 965-1810)
Procedure: Histone acetylation with Bi-PIP was directly confirmed by mass spectrometry analysis. After HAT reaction using Nuc1 (500 nM), B PIP1 (0 or 2.5 μM), recombinant human P300 (50 nM) and Ac-CoA (10 μM), the histones were processed through propionylation of unmodified lysine, tryptic digestion, and propionylation of terminal amine. The resulting peptides were analyzed by liquid chromatography-tandem mass spectrometry (LC-MS/MS).

[4] = test system: Nuc1 / HeLa nuclear extract; experiment: HAT reaction-in vitro ChIP-qPCR with HeLa nuclear extract as HAT resource, Nuc1; format: biochemical, human; details: 100 nM compound; HeLa nuclear extract 2% v/v; FIG. 6
HEK293T cells = experiment: Transcriptome analysis (microarray) of cells treated with Bi-PIPs; format: cell-based, human; details: 1 μM, 15 hours; for downregulated transcripts: criteria <−2-fold change and <0.05 P value vs vehicle; for most upregulated protein-coding gene among uniquely activated transcripts: criteria >1.5- or <−1.5-fold change, FIG. 7A; for upregulated transcripts: criteria >2-fold change and <0.05 P value vs vehicle; for change in global gene expression (in words) / transcripts commonly upregulated by both Bi-PIP1 and Bi-PIP2: microarray
Procedure: Considering the fundamental role of P300/CBP as the transcriptional coactivator to activate gene expression, transcriptome analyses of total RNA extracted from cells (HEK293T cells) treated with Bi-PIPs were performed. […]
HEK293T line was purchased from ATCC and maintained in DMEM (Thermo Fisher Scientific) supplemented with 10% (v/v) fetal bovine serum (FBS, Sigma Aldrich) at 37° C. with 5% CO2. For the Bi-PIP treatment, the cells were seeded on 24 well plates (2×10^5 cells/well). After one day, 1 μM of each Bi-PIP and 4 μM of Endo-Porter (10% polyethylene glycol form, Gene Tools) were added. As a vehicle, 0.1% DMSO (v/v) was used. After 15 hours of Bi-PIP treatment, RNA was extracted using FastGene™ RNA Basic Kit (Nippon Genetics) following manufacture's instruction.
The quality of RNA was checked with Bioanalyzer (Agilent Technologies) using Agilent RNA 6000 Pico Kit (Agilent Technologies). The total RNA was processed by GeneChip WT PLUS Reagent Kit (Affymetrix) and hybridized to Human Gene 2.1 ST Array Strip (Affymetrix) using GeneChip Hybridization, Wash, and Stain Kit (Affymetrix). Fluidics and scanning were conducted in GeneAtlas System (Affymetrix) using GeneChip Hybridization, Wash, and Stain Kit (Affymetrix). Data normalization, summarization and comparison were performed using Transcriptome Analysis Console v4 (Affymetrix).

| SMILES | acetylation of Nuc1 (anti-acetylated H3 ChIP-qPCR) ([1]; 100 nM compound, P300 0, 1, 3, 10, 30, 100 nM, FIG. 3) | acetylation of target nucleosome Nuc1 (anti-acetylated H3 ChIP-qPCR) ([1]; 100 nM each compound, 10 nM P300 (amino acids 965-1810), FIG. 4) | acetylation of Nuc2 (anti-acetylated H3 ChIP-qPCR) ([2]; P300 0, 1, 3, 10, 30, 100 nM, FIG. 3) | acetylation in the N-terminal region of histone H4 (H4K5ac, H4K8ac, H4K12ac) [3] | signal intensity of peptides containing acetyl lysine at the N-terminal tail region of H3 (H3K14ac, H3K18ac, H3K23ac, H3K27ac, H3K36ac) [3] | acetylation of Nuc1 in nuclear extract [4] | downregulated transcripts (HEK293T cells) | most upregulated protein-coding gene among uniquely activated transcripts (HEK293T cells) | upregulated transcripts (HEK293T cells) | change in global gene expression (in words) (HEK293T cells) | transcripts commonly upregulated by both Bi-PIP1 and Bi-PIP2 (HEK293T cells) | acetylation of Nuc2 (anti-acetylated H3 ChIP-qPCR) ([2]; 10 nM P300 (amino acids 965-1810), FIG. 5) |
| --- | --- | --- | --- | --- | --- | --- | --- | --- | --- | --- | --- | --- |
| Cc1noc(C)c1-c1ccc2c(c1)nc(CCc1ccc(OCCNC(=O)CCCCC(=O)NCCOCCOCC(=O)NCCOCCOCC(=O)Nc3cn(C)c(C(=O)Nc4cc(C(=O)Nc5cc(C(=O)NCCC(=O)Nc6cn(C)c(C(=O)Nc7cc(C(=O)NCCCC(=O)Nc8cc(C(=O)Nc9cc(C(=O)NCCC(=O)Nc%10cn(C)c(C(=O)Nc%11cc(C(=O)Nc%12cc(C(=O)NCCCN(C)C)n(C)c%12)n(C)c%11)n%10)n(C)c9)n(C)c8)n(C)c7)n6)n(C)c5)n(C)c4)n3)cc1)n2CCN1CCOCC1 [Bi-PIP1] | induced intensive acetylation | Nuc1-selective acetylation | acetylation was not induced | acetylation was promoted | increase in the signal intensity | enhanced acetylation of Nuc1 | 258 | NTS | 473 | greater transcriptome changes | 247 |  |
| Cc1noc(C)c1-c1ccc2c(c1)nc(CCc1ccc(OCCNC(=O)CCCCC(=O)NCCOCCOCC(=O)NCCOCCOCC(=O)Nc3cn(C)c(C(=O)Nc4cn(C)c(C(=O)NCCC(=O)Nc5cn(C)c(C(=O)Nc6cn(C)c(C(=O)Nc7cc(C(=O)NCCCC(=O)Nc8cn(C)c(C(=O)Nc9cc(C(=O)NCCC(=O)Nc%10cn(C)c(C(=O)Nc%11cc(C(=O)Nc%12cc(C(=O)NCCCN(C)C)n(C)c%12)n(C)c%11)n%10)n(C)c9)n8)n(C)c7)n6)n5)n4)n3)cc1)n2CCN1CCOCC1 [Bi-PIP2] |  |  |  |  |  |  | 137 | IER5L | 446 | greater transcriptome changes | 247 | selective acetylation of Nuc2 |
